From a melting point compilation (Tetko et al.; mined from patent text by program, amines drawn as free bases though some values may be those of a salt)

Row | melting point [°C] | Structure (SMILES)
1 | 139 to 140 | CCOC(=O)c1c(C)nc2c(c1N)c1ccccc1n2Cc1ccccc1
2 | 240 | C=CCOc1ccccc1NC=C1C(=O)N(c2ccc(C(=O)O)cc2)N=C1C
3 | 157 to 159 | C/C(=N\OCCOc1ccc(C(=O)O)c(O)c1)c1ccc(C(C)(C)C)cc1
4 | 216 to 226 | O=C1c2ccccc2C(=O)C1c1cccc([N+](=O)[O-])c1
5 | 108 to 110 | COC(=O)c1cc(O)cc(-c2ccccc2)c1
6 | 188 | NC1=NN(c2cccc(Cl)n2)C(c2ccccc2)C1 (stereo unspecified)
7 | 233 to 235 | COc1ncccc1Nc1c(NC(NC(=O)c2cccc(C)c2)C(C)(C)Cc2ccccc2)c(=O)c1=O (stereo unspecified)
8 | 200 to 205 | O=C(O)Cc1c(Cl)nc(-c2ccccc2)n1Cc1cc([N+](=O)[O-])ccc1Cl
9 | 76.5 to 77.5 | CC1=C(c2ccccc2)C(=O)N(C(C)(C)C(=O)Cc2cc(F)cc(F)c2)CO1
10 | 70 | CC#CCN(c1nc(-c2ccc(OC)cc2Cl)c(C)s1)C(COC)c1ccccc1 (stereo unspecified)
11 | 179 to 180 | COc1cc(COc2nn(-c3ccccc3)cc2CC(=O)O)ccc1OCc1nc(-c2ccco2)oc1C
12 | 209 to 210 | CCc1cc(NCc2nc3ccccc3s2)c(=O)[nH]c1C
13 | 105 to 107 | O=C(CCc1ccc(O)cc1)OCCC(c1ccccc1)(c1ccccc1)c1ccccc1
14 | 106 | COc1cc(C(=O)c2ccc(N)c(C(=O)O)c2)n2ccccc12
15 | 194 to 195 | CCc1noc(C)c1-c1[nH]c2ccccc2c1CC(N)=O
16 | 181 | CC1(C(=O)O)Oc2ccc(Cl)cc2C(C)(c2ccccc2)O1 (stereo unspecified)
17 | 100 to 102 | Cc1ccc(C(=O)OC2CCN(Cc3cccc(N)c3)CC2)cc1
18 | 224 to 228 | COc1ccc(-c2csc(Nc3cc4ccccc4cn3)n2)cc1
19 | 221 | O=C(NOC1CCCCO1)c1ccc(-c2ccc3ncnc(Nc4ccc(OCc5cccc(F)c5)c(Cl)c4)c3c2)o1 (stereo unspecified)

Row | melting point [°C] | Structure (SMILES)
20 | 112 | CCOC(=O)c1ccc(NCc2nccnc2OCc2ccccc2)cc1
21 | 210 | COC(=O)c1cc(C(=O)c2c(C)c(NC(=O)c3cccc(OC(C)=O)c3)c3ccccn23)ccc1N
22 | 124 to 125 | Cc1nc(-c2noc(Cc3ccccc3)n2)sc1C(=O)NCc1ccccc1
23 | 106 to 108 | COc1ccc(NC(=O)c2ccccc2F)c(C(C)=O)c1OC
24 | 124 to 126 | CSC(=O)C(=O)c1ccc2oc(-c3ccccc3)cc2c1
25 | 197 to 200 | Nc1cnc(-c2ccc(Cl)cc2)n(CC(=O)NC(Cc2ccccc2)C(=O)C(F)(F)F)c1=O (stereo unspecified)
26 | 148 to 149 | Cc1oc(-c2ccco2)nc1COc1ccc(COc2nn(-c3ccccc3)cc2C=O)cc1
27 | 98 to 99 | O=C(CCBr)N1CC(c2ccccc2)c2ccccc21 (stereo unspecified)
28 | 191 to 194 | O=C(O)COc1ccc(C(=O)C=Cc2ccccc2F)c(Cl)c1Cl
29 | 87 | COC(=O)c1cccnc1C(=O)CC(=O)c1ccccc1
30 | 134 to 141 | COC(=O)c1cc(C(=O)CNC(C)(C)Cc2ccc3c(c2)OCO3)ccc1OCc1ccccc1
31 | 143 to 146 | O=C(CNc1ccccc1F)Nc1ccc(O)cc1
32 | 197 to 198 | CC(=O)N[C@@H](CSC(c1ccccc1)(c1ccccc1)c1ccccc1)C(=O)N1CCSC1
33 | 129 to 130 | Cc1nccn1-c1nc(-c2ccc(Cl)cc2)c(CCCn2cccn2)o1
34 | 125 to 127 | CCCCOc1ccc2cc(C(C)C(=O)O)ccc2c1 (stereo unspecified)
35 | 171 to 172 | COc1ccc(S(=O)(=O)Nc2cccnc2Nc2ccccc2)cc1OC
36 | 199 to 201 | CCCCOc1cc(C(=O)N(C)C)cc(S(N)(=O)=O)c1Cc1ccccc1
37 | 192 to 193 | Cc1ccn(-c2ccc(C(=O)N3Cc4cccnc4Nc4ccccc43)c(Cl)c2)n1

The next lines start with the compound.

Row | Structure (SMILES) | melting point [°C]
38 | CCCCC(=O)N(Cc1ccc2c(c1)CCc1ccccc1N2CC#N)C(C(=O)O)C(C)C (stereo unspecified) | 82
39 | COC(=O)c1cc(C(=O)N2CCCC(=O)C2)c2cc(Cc3ccc(F)cc3)cnc2c1O | 228 to 229
40 | C#Cc1cn(C2CC(OC(=O)C(C)(C)C)C(COC(=O)C(C)(C)C)O2)c(=O)[nH]c1=O (stereo unspecified) | 151
41 | CCCC[C@H]1CC[C@H](c2ccc(OC(=O)[C@H]3CC[C@H](CCC)C3)cc2)CC1 (relative stereo) | 90
42 | COC1C(O)C(CO)OC1n1cnc2c(N)nc(N)nc21 (stereo unspecified) | 133 to 135
43 | CCOC(=O)c1cc(C)c2c(c1)CC(=O)N2 | 238 to 241
44 | COP(=O)(OC)C(=O)Cc1ccccc1 | 117 to 122
45 | C#CCOc1ccc(C)cc1S(N)(=O)=O | 169 to 170
46 | CCc1c(C)c(=O)oc2cc(-c3nnc(C)s3)cc(OC)c12 | 135 to 138
47 | CC(C)(C)C(=O)Nc1ccc(O)cc1 | 168 to 170
48 | Cc1cc(C)c2c(c1C)OCC2=O | 92 to 93
49 | CCCCOC(=O)c1c(CBr)nc2cc(OC)c(OC)cc2c1-c1ccc(OC)c(OC)c1 | 160 to 161
50 | CC(C)Cn1c(CN)nc2c(N)nc3ccccc3c21 | 287 to 291
51 | CCCOc1ccc(CCC(=O)N2CCOCC2)cc1-c1nc2c(c(C)nn2CCC)c(=O)[nH]1 | 132 to 133
52 | Cc1nn(C)c2c(Cl)nc(C(C)C)nc12 | 87 to 89
53 | CSc1ccc(Oc2ccc(Cl)c(Cl)c2)nc1C#N | 156 to 158
54 | CC1CCc2ccc(OCC(O)CCl)cc2O1 (stereo unspecified) | 70 to 72
55 | COc1cc2c(cc1Nc1ncc(Cl)c(Nc3cc(C(N)=O)ccc3OC)n1)CCN(CC(=O)N(C)C)CC2 | 163 to 174
56 | COC(=O)c1c(C(=O)OC)n(Cc2cccc(C(N)=S)c2)c2ccccc12 | 176 to 178
57 | COc1cc(/C=C/C(=O)/C=C/c2ccc(O)c(OC)c2)ccc1O | 82 to 83
58 | CC(Cc1cccc([N+](=O)[O-])c1)[N+](=O)[O-] (stereo unspecified) | 56 to 58
59 | ClCc1ccc(CN=C(Nc2ccccc2-c2ccccc2)Nc2ccccc2-c2ccccc2)cc1 | 87 to 91.5

Row | Structure (SMILES) | melting point [°C]
60 | CCCCCN(CCCCC)C(=O)CCCCC(=O)O | 152
61 | CCCCCCCCCC(O)Cc1ccc(O)c(O)c1 (stereo unspecified) | 56 to 58
62 | CC1CC(=O)NN=C1c1ccc2c(c1)C(C)(C)CC(=O)N2C (stereo unspecified) | 238 to 241
63 | CS(=O)(=O)Cc1nnc(-c2ccc3occ(-c4cccc(OC(F)(F)F)c4)c3c2)o1 | 162 to 163
64 | CC(O)c1nccc(N2CCc3cc(-c4ccsc4)ccc3C2)n1 (stereo unspecified) | 126 to 128
65 | CS(=O)(=O)c1ccc(-c2cc(C(F)F)nn2C2CCCCC2)cc1F | 138 to 139
66 | CCCCCCCCCCCCc1c([N+](=O)[O-])ncn1C | 56 to 59
67 | CCc1cccc(CC)c1NC(=O)NC1(c2cccs2)CCCCC1 | 208 to 210
68 | COc1ccc(C(=O)Nc2c(Cl)cncc2Cl)cc1OC1C=CCC1 (stereo unspecified) | 177 to 178
69 | Clc1c(-c2ccccc2)noc1NCC#CI | 133 to 135
70 | O=C(O)c1c[nH]c(Br)c1-c1ccc(Cl)cc1 | > 205
71 | O=S(=O)(Nc1ccc(Cl)cc1Sc1ccc(Cl)cc1)C(F)(F)F | 83 to 84
72 | CN[C@@H]1COc2cc(Cl)cc(-c3ccc(Cl)cc3Cl)c2O1 | 140
73 | CN1CCN(c2cccc3c2C[C@H](NC(=O)c2ccc(OC(F)(F)F)cc2)CO3)CC1 | 192 to 193
74 | CC(C)CCCC(C)C1CCC2C3CC=C4CC(OCCO)CCC4(C)C3CCC12C (stereo unspecified) | 92 to 95
75 | CCC(CC)N1C(=O)CCc2c(C)nc(Nc3ccc(C(C)C)cc3Br)nc21 | 124 to 126
76 | COCCOc1ccc(/C=C/C(=O)O)c(Oc2ncc(Br)cc2C)c1 | 157 to 158
77 | Cc1cc(C)c(N2CCCCC2=S)c(Cl)c1 | 147 to 148
78 | CCOC(=O)c1nc(NC)sc1C(=O)CBr | 130 to 132
79 | CSc1nc(N)nc2c3nc(C)cc(C)c3nn12 | 306 to 307
80 | CON1C(=O)[C@@H](NC(=O)OC(C)(C)C)[C@@H]1C1CCCCC1 (relative stereo) | 110 to 112
81 | COc1c(N2CCC(NC(=O)OC(C)(C)C)C2)c(F)cc2c(=O)c(C(=O)O)cn(C3CC3)c12 (stereo unspecified) | 224 to 226

Row | Structure (SMILES) | melting point [°C]
82 | ON=C1Cc2ccccc2C(=NO)c2ccccc21 | 220 to 221
83 | CC(C)(C)c1cc(CCC(=O)NNC(=O)C=Cc2ccc(Cl)cc2)cc(C(C)(C)C)c1O | 276 to 277
84 | CC(C)Oc1c(C(=O)O)sc2c1CSCC2 | 148 to 149
85 | CSc1ccc(Oc2ccc(N)cc2)c(C)c1 | 162
86 | O=C(Nc1ccc(O)cc1O)c1cc(Cl)c(O)c(Cl)c1 | 235 to 237
87 | CNc1nc(Cl)nc2c(Cl)ncnc12 | 196 to 197
88 | Cc1cc(C(=O)Nc2cc(Oc3ccc4nc(NC(=O)C5CC5)cn4n3)ccc2Cl)n(C)n1 | 255
89 | COc1cccc2c(CCCCNC3COc4c(F)ccc(C(N)=O)c4C3)coc12 (stereo unspecified) | 138 to 141
90 | O=C1C=C(NC(=O)C(=O)c2cn(Cc3ccc(Cl)cc3)c3cccc(CO)c23)CO1 | 238 to 240
91 | CCCCCCn1cnc(NC)c1C(=O)NCCCCCCOc1ccc(Cl)cc1 | 55 to 56
92 | CN1CC[C@H]2Cc3[nH][nH]c(=O)c3C[C@@H]2C1 (relative stereo) | 245 to 247
93 | C#Cc1c(C#N)nn(-c2c(Cl)cc(OC(F)(F)F)cc2Cl)c1N | 176
94 | CCn1ncc(C(=O)c2ccc(S(C)(=O)=O)c(OCCOC)c2Cl)c1O | 159 to 160
95 | COc1ccc2cc(C(=O)O)oc2c1 | 208 to 211
96 | COC(=O)C(=O)c1ccccc1F | 98 to 100
97 | COC(=O)NC[C@H]1CN(c2ccc(-c3nc(Cn4cccn4)cs3)c(F)c2)C(=O)O1 | 142 to 144
98 | CN1CCN(NS(=O)(=O)c2cc([N+](=O)[O-])c(Cl)s2)CC1 | 91
99 | C=CCCCCN1C(=O)c2ccccc2C1=O | 17 to 20
100 | O=C1c2ccccc2S(=O)(=O)N1CS(=O)(=O)c1ccccc1 | 169 to 171
101 | COC(=O)c1c(C(=O)OC)c(-c2ccc(OC)cc2)c2cc3c(cc2c1O)OCO3 | 169 to 171
